Results published in ChEMBL document CHEMBL1201862, “PubChem BioAssay data set” (2004).
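Five concentrations, 48 hours, 96-well plates. Here, GI50 denotes the concentration required for 50% inhibition of growth.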 Active and inactive are the calls of the source. No stated cut-off is given here; in the data, active = GI50 up to about 1.1 µM and inactive = higher.

Experiments:
Experiment in all cases: inhibition of tumour cell growth, NCI panel, 48 h
OVCAR-4 = system: OVCAR-4
SF-295 = system: SF-295
SK-MEL-2 = system: SK-MEL-2
DMS-273 = system: DMS-273
COLO 205 = system: COLO 205
ACHN = system: ACHN
786-0 = system: 786-0
NCI-H522 = system: NCI-H522
RPMI-8226 = system: RPMI-8226
DLD-1 = system: DLD-1
HT-29 = system: HT-29
SF-268 = system: SF-268
M14 = system: M14
A549 = system: A549
OVCAR-8 = system: OVCAR-8
NCI-H460 = system: NCI-H460
U-251 = system: U-251

| SMILES | GI50 (OVCAR-4) | GI50 (SF-295) | GI50 (SK-MEL-2) | GI50 (DMS-273) | GI50 (COLO 205) | GI50 (ACHN) | GI50 (786-0) | GI50 (NCI-H522) | GI50 (RPMI-8226) | GI50 (DLD-1) | GI50 (HT-29) | GI50 (SF-268) | GI50 (M14) | GI50 (A549) | GI50 (OVCAR-8) | GI50 (NCI-H460) | GI50 (U-251) |
| --- | --- | --- | --- | --- | --- | --- | --- | --- | --- | --- | --- | --- | --- | --- | --- | --- | --- |
| O=C(c1ccccc1)C1OC12C(=O)Nc1ccccc12 (configuration not stated) | 47.8 µM (inactive) | 27 µM (inactive) | 44.2 µM (inactive) | 38 µM (inactive) | 18 µM (inactive) | 56.9 µM (inactive) | 45.7 µM (inactive) | 13.3 µM (inactive) | 20.7 µM (inactive) | 32.7 µM (inactive) | 19.7 µM (inactive) | 59.8 µM (inactive) | 21.8 µM (inactive) | 46.7 µM (inactive) | 32.5 µM (inactive) | 41.7 µM (inactive) | – |
| CSc1nnc2n1-c1ccccc1SCC2 | > 100 µM (inactive) | > 100 µM (inactive) | > 100 µM (inactive) | > 100 µM (inactive) | > 100 µM (inactive) | > 100 µM (inactive) | > 100 µM (inactive) | > 100 µM (inactive) | > 100 µM (inactive) | > 100 µM (inactive) | > 100 µM (inactive) | > 100 µM (inactive) | > 100 µM (inactive) | > 100 µM (inactive) | > 100 µM (inactive) | > 100 µM (inactive) | > 100 µM (inactive) |
| O=C1C=CC2(O)OCC3C=C4O[C@@H]5OC6(CCCCC6)O[C@@H]5C4[C@@H]2[C@@H]13 (some centres not stated) | 22.6 µM (inactive) | > 100 µM (inactive) | 82 µM (inactive) | 50.4 µM (inactive) | 15.3 µM (inactive) | 26.1 µM (inactive) | 20.4 µM (inactive) | 11.3 µM (inactive) | 16.2 µM (inactive) | 22.4 µM (inactive) | 22.3 µM (inactive) | 33.2 µM (inactive) | 20.5 µM (inactive) | > 100 µM (inactive) | 24.9 µM (inactive) | > 100 µM (inactive) | > 100 µM (inactive) |
| NCCCC1NC(=O)/C(=C(O)/C=C/C2CCC[C@@H]2CC2SCCS2)C1=O (some centres not stated) | > 100 µM (inactive) | > 100 µM (inactive) | > 100 µM (inactive) | 74.8 µM (inactive) | 37.2 µM (inactive) | > 100 µM (inactive) | > 100 µM (inactive) | 29 µM (inactive) | > 100 µM (inactive) | > 100 µM (inactive) | > 100 µM (inactive) | > 100 µM (inactive) | > 100 µM (inactive) | > 100 µM (inactive) | > 100 µM (inactive) | > 100 µM (inactive) | > 100 µM (inactive) |
| O=C(O)Cn1c(=O)[nH]c(=O)c2c1ncn2Cc1ccccc1 | – | – | > 100 µM (inactive) | > 100 µM (inactive) | > 100 µM (inactive) | > 100 µM (inactive) | > 100 µM (inactive) | > 100 µM (inactive) | > 100 µM (inactive) | > 100 µM (inactive) | > 100 µM (inactive) | > 100 µM (inactive) | > 100 µM (inactive) | > 100 µM (inactive) | > 100 µM (inactive) | > 100 µM (inactive) | > 100 µM (inactive) |
| c1ccc2c(CNCCCCCCCCNCc3cccc4ccccc34)cccc2c1 | 2.3 µM (inactive) | 1.88 µM (inactive) | 1.65 µM (inactive) | 2.01 µM (inactive) | 1.96 µM (inactive) | 2.9 µM (inactive) | 1.73 µM (inactive) | 1.79 µM (inactive) | 1.67 µM (inactive) | 2.11 µM (inactive) | 1.8 µM (inactive) | 7.52 µM (inactive) | 1.75 µM (inactive) | 2.2 µM (inactive) | 1.86 µM (inactive) | 1.48 µM (inactive) | 1.72 µM (inactive) |
| Cc1cc(N(CCC#N)CCC#N)ccc1/C=C1\N=C(c2cc([N+](=O)[O-])ccc2Cl)N(c2cccc(Cl)c2)C1=O | > 100 µM (inactive) | > 100 µM (inactive) | > 100 µM (inactive) | > 100 µM (inactive) | 87.7 µM (inactive) | > 100 µM (inactive) | > 100 µM (inactive) | 58.6 µM (inactive) | > 100 µM (inactive) | > 100 µM (inactive) | 45.2 µM (inactive) | > 100 µM (inactive) | > 100 µM (inactive) | > 100 µM (inactive) | > 100 µM (inactive) | > 100 µM (inactive) | > 100 µM (inactive) |
| CC1(C)OC2C(O1)[C@H]1OC(C(Cl)(Cl)Cl)=N[C@H]1C(I)[C@H]2N1C(=O)c2ccccc2C1=O (some centres not stated) | 24.1 µM (inactive) | 56.4 µM (inactive) | – | 52.1 µM (inactive) | 33.6 µM (inactive) | 65.6 µM (inactive) | > 100 µM (inactive) | 24.5 µM (inactive) | 32.7 µM (inactive) | > 100 µM (inactive) | 59.4 µM (inactive) | 71.6 µM (inactive) | 69.3 µM (inactive) | 32.6 µM (inactive) | > 100 µM (inactive) | 54.6 µM (inactive) | 84.9 µM (inactive) |
| COc1cc2cc[n+]3c4cc(OC)c(OC)cc4c(C)cc3c2cc1OC | > 100 µM (inactive) | > 100 µM (inactive) | > 100 µM (inactive) | > 100 µM (inactive) | 89.1 µM (inactive) | > 100 µM (inactive) | > 100 µM (inactive) | > 100 µM (inactive) | > 100 µM (inactive) | > 100 µM (inactive) | > 100 µM (inactive) | – | > 100 µM (inactive) | > 100 µM (inactive) | > 100 µM (inactive) | > 100 µM (inactive) | 70 µM (inactive) |
| O=C1/C(=C\c2ccccc2)C2/C(=C\c3ccccc3)C(=O)/C(=C\c3ccccc3)C2/C1=C\c1ccccc1 (configuration not stated) | 1.21 µM (inactive) | 2.07 µM (inactive) | 1.81 µM (inactive) | 0.964 µM (active) | 1.52 µM (inactive) | 2.29 µM (inactive) | 1.22 µM (inactive) | 0.592 µM (active) | 0.336 µM (active) | 1.22 µM (inactive) | 1.34 µM (inactive) | 2.58 µM (inactive) | 1.43 µM (inactive) | 2.48 µM (inactive) | 0.412 µM (active) | 1.9 µM (inactive) | 1.17 µM (inactive) |
| C1=Cc2nc1c(-c1ccccc1)c1nc(c(-c3ccccc3)c3ccc([nH]3)c(-c3ccccc3)c3ccc([nH]3)c2-c2ccccc2)C=C1 [TETRAPHENYLPORPHYRIN] | > 100 µM (inactive) | > 100 µM (inactive) | > 100 µM (inactive) | > 100 µM (inactive) | > 100 µM (inactive) | > 100 µM (inactive) | > 100 µM (inactive) | > 100 µM (inactive) | > 100 µM (inactive) | > 100 µM (inactive) | > 100 µM (inactive) | > 100 µM (inactive) | > 100 µM (inactive) | > 100 µM (inactive) | > 100 µM (inactive) | > 100 µM (inactive) | > 100 µM (inactive) |
| C=CCN1/C(=C2\SC(=S)N(c3ccc(C)cc3)C2=O)Sc2c1nc[nH]c2=O | 96.2 µM (inactive) | 88.7 µM (inactive) | 43.3 µM (inactive) | > 100 µM (inactive) | > 100 µM (inactive) | > 100 µM (inactive) | > 100 µM (inactive) | 59.2 µM (inactive) | > 100 µM (inactive) | > 100 µM (inactive) | > 100 µM (inactive) | > 100 µM (inactive) | > 100 µM (inactive) | > 100 µM (inactive) | > 100 µM (inactive) | > 100 µM (inactive) | 79.8 µM (inactive) |
| COc1nc(/C=N/NC(N)=S)nc(OC)n1 | > 100 µM (inactive) | 42.3 µM (inactive) | > 100 µM (inactive) | 56.9 µM (inactive) | > 100 µM (inactive) | 43.8 µM (inactive) | 58.3 µM (inactive) | 75.5 µM (inactive) | > 100 µM (inactive) | > 100 µM (inactive) | 76 µM (inactive) | 61.7 µM (inactive) | 55.1 µM (inactive) | 56.6 µM (inactive) | 56.9 µM (inactive) | 43.5 µM (inactive) | 54.8 µM (inactive) |
| CNC(=O)NCCCC(NC(C)=O)C(=O)NCc1ccccc1 (configuration not stated) | > 100 µM (inactive) | > 100 µM (inactive) | > 100 µM (inactive) | > 100 µM (inactive) | > 100 µM (inactive) | > 100 µM (inactive) | > 100 µM (inactive) | > 100 µM (inactive) | > 100 µM (inactive) | > 100 µM (inactive) | > 100 µM (inactive) | > 100 µM (inactive) | > 100 µM (inactive) | > 100 µM (inactive) | > 100 µM (inactive) | > 100 µM (inactive) | > 100 µM (inactive) |
| O=[N+]([O-])c1ccc(Cl)cc1C1SCc2nc3ccccc3n21 (configuration not stated) | 44.4 µM (inactive) | 85.7 µM (inactive) | 62.4 µM (inactive) | 31.6 µM (inactive) | 61.1 µM (inactive) | 14.3 µM (inactive) | 53 µM (inactive) | 24.4 µM (inactive) | 31.2 µM (inactive) | 37.2 µM (inactive) | > 100 µM (inactive) | 42.1 µM (inactive) | 31.2 µM (inactive) | 41.7 µM (inactive) | 60.8 µM (inactive) | 5.3 µM (inactive) | 40.4 µM (inactive) |
| Nc1ncnc2c1ncn2C1CC(OCc2ccccc2[N+](=O)[O-])C(CO)O1 (configuration not stated) | 17.4 µM (inactive) | 15.6 µM (inactive) | 22.4 µM (inactive) | 18.4 µM (inactive) | 9.2 µM (inactive) | 13.3 µM (inactive) | 43.4 µM (inactive) | 13.7 µM (inactive) | 14.9 µM (inactive) | 23.7 µM (inactive) | 17.5 µM (inactive) | 28.2 µM (inactive) | 15.6 µM (inactive) | 21.7 µM (inactive) | 23.8 µM (inactive) | 20.1 µM (inactive) | 24.2 µM (inactive) |
